PMC3050028 (Neuron, 2011)

Target: T1, IR84a (Drosophila melanogaster, UniProt Q9VIA5)
T1 sequence (Q9VIA5 25-644): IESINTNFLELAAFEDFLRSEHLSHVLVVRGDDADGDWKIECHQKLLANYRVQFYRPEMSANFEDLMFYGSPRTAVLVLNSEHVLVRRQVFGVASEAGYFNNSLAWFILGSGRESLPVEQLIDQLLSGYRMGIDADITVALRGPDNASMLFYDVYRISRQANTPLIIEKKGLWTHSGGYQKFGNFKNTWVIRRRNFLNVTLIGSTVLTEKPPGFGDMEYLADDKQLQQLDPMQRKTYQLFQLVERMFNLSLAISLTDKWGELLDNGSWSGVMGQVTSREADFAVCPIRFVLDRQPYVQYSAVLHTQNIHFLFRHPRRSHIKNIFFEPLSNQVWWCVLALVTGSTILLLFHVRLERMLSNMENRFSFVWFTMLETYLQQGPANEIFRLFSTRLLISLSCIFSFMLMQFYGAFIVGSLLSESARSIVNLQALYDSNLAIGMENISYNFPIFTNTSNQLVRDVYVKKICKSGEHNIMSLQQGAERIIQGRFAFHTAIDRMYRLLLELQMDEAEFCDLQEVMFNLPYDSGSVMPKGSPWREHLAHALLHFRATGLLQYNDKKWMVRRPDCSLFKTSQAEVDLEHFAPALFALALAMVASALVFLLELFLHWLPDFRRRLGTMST
T1 sequence (Q9W365 18-936 partner): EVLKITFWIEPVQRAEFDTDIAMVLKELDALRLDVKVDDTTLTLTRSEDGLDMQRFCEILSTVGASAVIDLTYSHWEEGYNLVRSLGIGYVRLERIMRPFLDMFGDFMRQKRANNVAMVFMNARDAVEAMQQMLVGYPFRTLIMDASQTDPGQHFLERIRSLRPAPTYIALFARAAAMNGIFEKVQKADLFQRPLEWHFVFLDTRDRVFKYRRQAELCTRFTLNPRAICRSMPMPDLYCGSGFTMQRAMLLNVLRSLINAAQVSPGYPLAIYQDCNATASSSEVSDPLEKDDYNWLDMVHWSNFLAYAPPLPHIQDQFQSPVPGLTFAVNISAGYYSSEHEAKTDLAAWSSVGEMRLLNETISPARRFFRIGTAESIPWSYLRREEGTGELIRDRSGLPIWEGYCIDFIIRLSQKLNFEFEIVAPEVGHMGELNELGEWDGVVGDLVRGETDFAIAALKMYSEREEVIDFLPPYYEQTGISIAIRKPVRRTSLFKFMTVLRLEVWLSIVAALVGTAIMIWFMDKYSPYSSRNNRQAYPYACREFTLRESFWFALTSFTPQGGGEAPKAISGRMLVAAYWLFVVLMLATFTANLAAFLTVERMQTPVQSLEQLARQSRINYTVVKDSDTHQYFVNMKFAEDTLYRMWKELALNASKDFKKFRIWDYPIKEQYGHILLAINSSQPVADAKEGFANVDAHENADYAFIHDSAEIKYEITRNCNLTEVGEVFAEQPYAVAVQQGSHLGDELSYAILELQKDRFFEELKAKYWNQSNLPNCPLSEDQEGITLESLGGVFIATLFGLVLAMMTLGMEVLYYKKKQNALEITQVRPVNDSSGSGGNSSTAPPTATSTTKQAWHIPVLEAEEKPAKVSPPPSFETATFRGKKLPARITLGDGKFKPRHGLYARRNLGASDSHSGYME
Type: cell-based

Compound `CC12CC3CC(C)(C1)CC(N)(C3)C2` [memantine] has an IC50 of 39 ± 9 µM.
